Laboratory results as given in patent US9907852B2, “Anticancer agent and side-effect-alleviating agent” (National University Corporation University of Toyama, priority 2014, dated 2018).

Legend:
[1] = test system: Human pancreatic cancer cell Suit 2; experiment: Tumor size in mice transplanted subcutaneously with Suit 2 (Test Example 1); assay type: in vivo; conditions: after 4 weeks from the starting of treatment; extract 0.5% (w/w) in feed, bevacizumab 5 mg/kg i.p. once a week, gemcitabine 100 mg/kg i.p. twice a week
Method: (§1) Human pancreatic cancer cell Suit 2 (1×10^6 cells) was transplanted subcutaneously to BALB/cAJc1-nu/nu mice (CLEA Japan, Inc.) . On 21th day after the transplantation, the transplanted mice were divided into 4 groups, that is, (a) an untreated group, (b) a group to which a Burdock Fruit extract was administered, (c) a group to which bevacizumab was administered, and (d) a group to which gemcitabine was administered, and the treatment was continued for 4 weeks. The Burdock Fruit extract of Example 1 was mixed into feed at a rate of 0.5% (w/w) and the resultant was given to mice. The ingestion of feed was 3 to 5 g a day for a mouse, from which the intake of arctigenin was calculated as […]. Bevacizumab, as Avastin 100 mg/4 ml for intravenous injection (Chugai Pharm. Co.) , was intraperitoneally injected at a dose of 5 mg/kg once a week. As gemcitabine, an intravenous drip preparation of gemcitabine (Eli Lilly and Co.) was intraperitoneally injected at a dose of 100 mg/kg twice a week.
The average tumor size after 4 weeks from the starting of treatment in the respective groups was as follows: (a) 228 mm^2 in the untreated group; (b) 189 mm^2 in the Burdock Fruit extract administered group; (c) 56 mm^2 in the bevacizumab administered group to which was; and (d) 68 mm^2 in the gemcitabine administered group.

[2] = test system: Human pancreatic cancer cell Suit 2; experiment: Uptake of gadolinium DTPA in tumor tissue by MRI, blood stream in tumor (Test Example 1); assay type: in vivo, mice; conditions: after intravenous injection of gadolinium DTPA; after 4 weeks of treatment
Method: as §1
After 4 weeks from the starting of treatment, the uptake of gadolinium DTPA in the mouse tumor tissue was evaluated in the respective groups. […] From this photograph the signal intensity of gadolinium DTPA in the tumor tissue was measured. […]

[3] = test system: Human pancreas cancer cells Miapaca-2 cells; experiment: Survival in orthotopic graft model of pancreas cancer (Test Example 4); assay type: in vivo, mice
Method: Human pancreas cancer cells Miapaca-2 cells were suspended in a highly concentrated Matrigel solution (BD bioscience) at 5×10^6 cells/50 μl. A female BALB/cAJcl-nu/nu mice (8 weeks of age) (CLEA Japan, Inc.) were subjected to laparotomy under anesthesia, the above-prepared cell suspension was poured into pancreatic tissue and solidified, followed by suture and closing.
The mice after transplantation were divided into 4 groups (7 mice in one group), that is, an untreated group (Non treat); a group to which 250 mg/kg of Burdock Fruit extract (Kracie Pharm., GBS-01) containing 10% of arctigenin was orally administered every day (GBS-01); a group which was intraperitoneally given 150 mg/kg of gemcitabine (Eli Lilly & Co.) twice a week (Gemcitabine); and a group of combined administration of them(Combination), and the treatment was continued until all of the mice died.
The survival rate was calculated according to the Kaplan-Mayer method by making a curve of survival rate and calculating the median of survival rate (MST) (GraphPad-PRISM 6.2, MDF Co.). The significant difference was evaluated by means of Logrank (Mantel-COX) and Gehan-Breslow-Wilcoxon test. The calculated results were shown on an upper graph of FIG. 5.

[4] = test system: Human pancreatic cancer cells Miapaca-2; experiment: Tumor weight in mice transplanted subcutaneously with Miapaca-2 (Test Example 3); assay type: in vivo; conditions: after 4 weeks; extract 250 mg/kg oral 5 times a week, gemcitabine 150 mg/kg i.p. twice a week
Method: Human pancreatic cancer cells Miapaca-2 (ATCC CRL 1420) (5×10^6 cells/200 μl) were transplanted subcutaneously under the armpit of BALB/cAJcl nu/nu mice (CLEA Japan, Inc.) . After feeding for about 2-3 weeks, those of which cancer grew to about 100 mm^3 were selected and employed as the subject mice to be treated. The subject mice of treatment were divided into 4 groups, that is, (a) an untreated group, (b) a group administered gemcitabine, (c) a group administered a Burdock Fruit extract, and (d) a group administered in combination with a Burdock Fruit extract and gemcitabine (combined administration group), and the treatment was continued for 4 weeks. […] After termination of the therapeutic test, the tumor weight was measured in the respective groups.

[5] = test system: Human pancreatic cancer cells Miapaca-2; experiment: Proportion of the cancer stem cells in tumor by flow cytometry, Miapaca-2 (Test Example 3); assay type: in vivo, mice; conditions: after the therapeutic test (4 weeks)
Method: Human pancreatic cancer cells Miapaca-2 (ATCC CRL 1420) (5×10^6 cells/200 μl) were transplanted subcutaneously under the armpit of BALB/cAJcl nu/nu mice (CLEA Japan, Inc.) . After feeding for about 2-3 weeks, those of which cancer grew to about 100 mm^3 were selected and employed as the subject mice to be treated.
The subject mice of treatment were divided into 4 groups, that is, (a) an untreated group, (b) a group administered gemcitabine, (c) a group administered a Burdock Fruit extract, and (d) a group administered in combination with a Burdock Fruit extract and gemcitabine (combined administration group), and the treatment was continued for 4 weeks. The Burdock Fruit extract, 250 mg/kg prepared in Example 1 (25 mg/kg or more as arctigenin), was orally administered everyday (for 5 times a week). As gemcitabine, an intravenous drip preparation of gemcitabine (Eli Lilly and Co.) was used, and 150 mg/kg was intraperitoneally given twice a week.
The cancer cells were recovered from the tumor tissue after termination of the treatment test, and using the triple positive markers, CD24, CD44 and ESA (CD326) as well as the double positive markers, CD133 and CD44, and the proportion of CD44^+, CD24^+, CD326^+ cells (triple positive) and CD133^+, CD44^+ cells (double positive) was evaluated. In the evaluation, a FACS ARIA II flow cytometer (BD bioscience) was used.

[6] = Toxicity test by concomitant repeated-dose administration (Test Example 8); assay type: in vivo, mice; conditions: after 7 weeks
Method: SIX SCR-ICR mice (female of 6 weeks of age) (SLC Co.) were used in each of 4 groups, that is, (a) untreated group, (b) gemcitabine administered group, (c) Burdock Fruit extract administered group, and (d) group of combined administration of Burdock Fruit extract and gemcitabine (combined administration group). In each group, each of the therapeutic agents was administered continuously for a period of 7 weeks.
Burdock Fruit extract, 250 mg/kg prepared in Example 1 (25 mg/kg as arctigenin) , was orally administered 5 times a week. As gemcitabine, an intravenous drip preparation of gemcitabine (Eli Lilly and Co.) was used, and 100 mg/kg was intraperitoneally administered once a week.
During the term of administration for about 7 weeks, measurement of body weight, observation of skin and oral state, as well as observation of feces were practiced every 5 days. As a result, there was recognized no symptom which reminded any side effect such as inflammation in skin and mucous membrane, depilation or diarrhea in all of the administered groups. In addition, generally there was no difference of significance in body weight which is an indicator of nausea, loss of appetite, side effect in digestive system, and the like.
After termination of administration, the mice were anesthetized deeply, subjected to thoracotomy and complete blood drawing from heart. In addition, kidney, liver, spleen and lung were recovered, the weight was measured.
In addition, a hemocytic and biochemical examination was carried out using the collected blood.

[7] = test system: tumor tissue; experiment: Occurrence of ulcer in the tumor tissue (Test Example 2); assay type: in vivo; conditions: rate of mice which generated ulcer in the tumor; administration over 5 weeks
Text: In the course of the growth of tumor, nutrition and oxygen have to be supplied over the grown entire tumor tissue through the blood vessels. In most of tumor, however, it is considered that these are not supplied sufficiently because of immature angioplasty to cause a partial necrosis of tissue and an ulcerous portion occurs. In this situation, in order to inspect the effect of normalization of intra-tumor blood stream by the above described Burdock Fruit extract, the occurrence of ulcer in the tumor tissue after the respective treatments was observed.
(§2) For tumor tissue, a single administration of a Burdock Fruit extract, a single administration of bevacizumab and a combined administration of a Burdock Fruit extract and bevacizumab were performed over a period of 5 weeks. […] Thus, the suppression effect on ulcer generation in tumor was recognized in the Burdock Fruit extract-administered group and the concomitantly administered group compared with that in the untreated group and the bevacizumab-administered group. In the bevacizumab-administered group, the inhibitory effect for ulcer generation was recognized in comparison with the untreated group, though it was temporal. This effect is considered to be an inhibitory activity of bevacizumab for angiogenesis. […]

[8] = test system: Human colorectal cancer cells LS174T; experiment: Tumor weight in mice transplanted subcutaneously with LS174T (Test Example 7); assay type: in vivo; conditions: after 4 weeks; extract 250 mg/kg oral 6 times a week, bevacizumab 5 mg/kg i.p. once a week
Method: (§3) On the 14th day, the transplanted mice were divided into 4 groups, that is, (a) an untreated group, (b) a bevacizumab-administered group, (c) a Gogoshi extract-administered group, and (d) a group of combined administration of a Burdock Fruit extract and bevacizumab (combined administration group), and the treatment was continued for 4 weeks. When a Burdock Fruit extract was administered, 250 mg/kg of Burdock Fruit extract (25 mg/kg as arctigenin) of Example 1 was orally administered 6 times a week. Bevacizumab, as Avastin for intravenous drip injection (100 mg/4 ml) (Chugai Pharm. Co.), was intraperitoneally injected at a dose of 5 mg/kg once a week.
After termination of the therapeutic test, the tumor weight was measured in the respective groups. As results, the tumor weight after termination of the therapeutic test was as follows: 2.51 g in the untreated group, 1.33 g in the bevacizumab administered group, 1.25 g in the Burdock Fruit extract administered group, and 0.68 g in the combined administration group. Accordingly, in any group including the bevacizumab administered group, the Burdock Fruit extract administered group and the combined administration group, the inhibition of increase of tumor weight was recognized compared with the untreated group. […]

[9] = test system: Human colorectal cancer cells LS174T; experiment: Proportion of cancer stem cells in tumor by flow cytometry, LS174T (Test Example 7); assay type: in vivo, mice; conditions: after termination of the treatment test (4 weeks)
Method: as §3
The cancer cells were then recovered from the tumor tissue, and using the double positive markers, CD133 and CD44, the proportion of CD133^+, CD44^+ cells in tumor after termination of the treatment test was evaluated by means of a FACS ARIA II flow cytometer (BD bioscience).

[10] = test system: tumor tissue; experiment: Survival period after 5 weeks of treatment (Test Example 2); assay type: in vivo, mice; conditions: treatment terminated after 5 weeks, survival followed up
Method: as §2, with “angiogenesis. On the other hand, when the combined administration of a Burdock Fruit extract in addition to bevacizumab, the inhibitory effect on ulcer generation was raised. This is considered that, in addition to the improved effect for blood stream in tumor by a single preparation of bevacizumab, the blood stream was further improved by combined administration of a Burdock Fruit extract which suppressed an occurrence of a hypoxia and undernutritional region and further suppressed angiogenesis. Thus, since the combined administration of arctigenin can markedly reduce a hypoxia and undernutritional region, it is expected to suppress the malignant transformation of cancer.” for “angiogenesis.”

[11] = gemcitabine 100 mg/kg i.p. once a week

Q: Which average tumor size [1] does the source give for Nc1ccn([C@@H]2O[C@H](CO)[C@@H](O)C2(F)F)c(=O)n1 [gemcitabine] here?
A: Its average tumor size is 68 mm^2.

Q: And the “increase of signal intensity in the central part of tumor tissue (in words)” value [2]?
A: The value was “no increase”.

Q: What about the “median of survival time (MST)” value ([3]; GBS-01 250 mg/kg oral every day, gemcitabine 150 mg/kg i.p. twice a week, until all mice died) of the same compound?
A: Its value is 86 days.

Q: What about the “prolongation of MST” value ([3]; against the untreated group (65 days)) of the same compound?
A: The value was 32.3%.

Q: What about the tumor weight [4] of the same compound?
A: Its tumor weight is 1.24 g.

Q: And the “ratio of CD133+, CD44+ cells (double positive) in tumor” value [5]?
A: The value was 3.5%.

Q: What about the “ratio of CD44+, CD24+, CD326+ cells (triple positive) in tumor” value ([5]; average of 4 samples) of the same compound?
A: Its value is 1.6%.

Q: And the “hematocrit value (in words)” value [6]?
A: The value was “lowering”.

Q: And the “hemoglobin value (in words)” value [6]?
A: Its value is “lowering”.

Q: And the “weight/body weight rate (%) of liver, lowering compared with the untreated group” value [6, 11]?
A: The value was “about 20%”.

Q: What about the “weight/body weight rate (%) of spleen, lowering compared with the untreated group” value [6, 11] of the same compound?
A: Its value is “about 20%”.

Q: And the “number of erythrocytes compared with the untreated group” value ([6]; value as % of untreated)?
A: The value was “approximately 87%”.

Q: And the “number of leukocytes compared with the untreated group” value ([6]; value as % of untreated)?
A: The value was “approximately 50%”.

Q: And the “number of platelets compared with the untreated group” value ([6]; value as % of untreated)?
A: The value was “approximately 70%”.

Q: And the “ALT, rise compared to the untreated group” value ([6]; hepatopathy marker)?
A: The value was 102%.

Q: What about the “AST, rise compared to the untreated group” value ([6]; hepatopathy marker) of the same compound?
A: Its value is 46%.

Q: Which results are given for bevacizumab?
A: average tumor size [1]: 56 mm^2; increase of signal intensity in the central part of tumor tissue (in words) [2]: tendency of increasing; duration until the generation of ulcer reached 50% [7]: 10 days; tumor weight [8]: 1.33 g; proportion of CD133+, CD44+ cells (double positive) in tumor [9]: 0.552%; 50% survival period [10]: 107 days
